From the supplement of paper PMC11061612

What was measured:
[1] = test system: CAL-54 (Kidney Carcinoma); assay: Bliss excess, mean over the matrix (fraction); higher = more synergy
In short: (§1)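 Cell lines grown in DMEM/F12 or RPMI with 10% FBS were plated in 1536-well plates and held 24 hours at 37°C, 5% CO2 before 72 hours of exposure to two-drug dose matrices, with DMSO typically at 0.2%. CellTiter-Glo 2.0 luminescence gave viability, which was converted to inhibition. Vehicle wells were set to 0 and blank wells to 1. Combination Emax is the second-highest inhibition in the matrix, and Bliss excess is the observed combination effect minus the expected EA + EB − EA·EB, where EA and EB are the single-agent effects.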

[2] = test system: CAPAN-1 (Pancreatic Carcinoma); assay: as above
In short: as §1

[3] = test system: HARA (Squamous Cell Lung Carcinoma); assay: as above
In short: as §1

[4] = test system: LB771-HNC (Head and Neck Carcinoma); assay: as above
In short: as §1

[5] = test system: 8305C (Thyroid Gland Carcinoma); assay: combination Emax (second highest fraction inhibited in the dose matrix, 72 h); higher = more inhibition; extreme values may be limits of the assay
In short: as §1

[6] = test system: HCC-15 (Squamous Cell Lung Carcinoma); assay: as above
In short: as §1

[7] = test system: HDLM-2 (Hodgkin's Lymphoma); assay: as above
In short: as §1

[8] = test system: KYSE-410 (Esophageal Squamous Cell Carcinoma); assay: as above
In short: as §1

NB14 (Neuroblastoma) = assay: as above
In short: as §1

NCI-H28 (Mesothelioma) = assay: as above
In short: as §1

[9] = test system: NCI-H69 (Small Cell Lung Carcinoma); assay: as above
In short: as §1

[10] = test system: NCI-H747 (Colorectal Carcinoma); assay: as above
In short: as §1

[11] = test system: OVCAR-8 (Ovarian Carcinoma); assay: as above
In short: as §1

[12] = test system: RKO (Colorectal Carcinoma); assay: as above
In short: as §1

[13] = test system: RPMI-6666 (Non-Cancerous); assay: as above
In short: as §1

[14] = test system: RT-112 (Bladder Carcinoma); assay: as above
In short: as §1

[15] = test system: SK-OV-3 (Ovarian Carcinoma); assay: as above
In short: as §1

[16] = test system: SUP-T1 (T-Lymphoblastic Leukemia); assay: as above
In short: as §1

[17] = test system: TE-4 (Esophageal Squamous Cell Carcinoma); assay: as above
In short: as §1

[18] = test system: UMC-11 (Other Solid Carcinomas); assay: as above
In short: as §1
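For Bliss excess, mean over the matrix in this document: after 72 h of two-drug dosing.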

| Structure (SMILES) | Bliss excess [1] | Bliss excess [2] | Bliss excess [3] | Bliss excess [4] | combination Emax [5] | combination Emax [6] | combination Emax [7] | combination Emax [8] | combination Emax (NB14 (Neuroblastoma)) | combination Emax (NCI-H28 (Mesothelioma)) | combination Emax [9] | combination Emax [10] | combination Emax [11] | combination Emax [12] | combination Emax [13] | combination Emax [14] | combination Emax [15] | combination Emax [16] | combination Emax [17] | combination Emax [18] |
| --- | --- | --- | --- | --- | --- | --- | --- | --- | --- | --- | --- | --- | --- | --- | --- | --- | --- | --- | --- | --- |
| CCN(CCO)CCCOc1ccc2c(Nc3cc(CC(=O)Nc4cccc(F)c4)[nH]n3)ncnc2c1 [AZD2811] + C=CCn1c(=O)c2cnc(Nc3ccc(N4CCN(C)CC4)cc3)nc2n1-c1cccc(C(C)(C)O)n1 [AZD1775] (first compound max 1 µM, partner max 1 µM) | -0.032 | -0.0733 | -0.0086 | -0.0295 | 0.89 | 0.723 | 0.746 | 0.267 | 1 | 0.278 | 0.602 | 0.414 | 0.791 | 0.655 | 0.902 | 0.531 | 0.434 | 0.839 | 0.171 | 0.832 |
| CCN(CCO)CCCOc1ccc2c(Nc3cc(CC(=O)Nc4cccc(F)c4)[nH]n3)ncnc2c1 [AZD2811] + C[C@@H]1COCCN1C2=NC(=NC(=C2)C3(CC3)[S@](=N)(=O)C)C4=C5C=CNC5=NC=C4 [AZD6738] (first compound max 1 µM, 7x7, partner max 10 µM) | -0.0383 | -0.0939 | 0.0144 | -0.0492 | 0.567 | 0.824 | 0.515 | 0.355 | 0.998 | 0.533 | 0.726 | 0.306 | 0.797 | 0.853 | 0.833 | 0.824 | 0.547 | 0.777 | 0.372 | 0.799 |
| CCN(CCO)CCCOc1ccc2c(Nc3cc(CC(=O)Nc4cccc(F)c4)[nH]n3)ncnc2c1 [AZD2811] + O=C(c1cc(Cc2n[nH]c(=O)c3ccccc23)ccc1F)N1CCN(C(=O)C2CC2)CC1 [Olaparib] (first compound max 1 µM, 7x7, partner max 10 µM) | -0.0073 | -0.0091 | -0.0071 | 0.0255 | 0.169 | 0.755 | 0.258 | 0.165 | 0.889 | 0.229 | 0.572 | 0.232 | 0.367 | 0.276 | 0.625 | 0.424 | 0.226 | 0.528 | 0.145 | 0.75 |
| CN(CCO)CC[C@H](CSc1ccccc1)Nc1ccc(S(=O)(=O)NC(=O)c2ccc(N3CCC([C@@H](O)c4ccccc4-c4ccc(Cl)cc4)CC3)cc2)cc1S(=O)(=O)C(F)(F)F [AZD4320] + C1CN(CCC1(C(=O)N[C@@H](CCO)C2=CC=C(C=C2)Cl)N)C3=NC=NC4=C3C=CN4 [Capivasertib] (first compound max 1 µM, 7x7, partner max 3 µM) | -0.0694 | -0.0405 | -0.0268 | -0.0148 | 0.506 | 0.923 | 0.841 | 0.0467 | 0.947 | 0.159 | 0.892 | 0.387 | 0.146 | 0.272 | 0.916 | 0.147 | 0.369 | 0.505 | 0.511 | 0.508 |
| CN(CCO)CC[C@H](CSc1ccccc1)Nc1ccc(S(=O)(=O)NC(=O)c2ccc(N3CCC([C@@H](O)c4ccccc4-c4ccc(Cl)cc4)CC3)cc2)cc1S(=O)(=O)C(F)(F)F [AZD4320] + C=CCn1c(=O)c2cnc(Nc3ccc(N4CCN(C)CC4)cc3)nc2n1-c1cccc(C(C)(C)O)n1 [AZD1775] (first compound max 1 µM, partner max 1 µM) | 0.146 | 0.0172 | -0.0129 | -0.0049 | 0.7 | 0.946 | 0.989 | 0.796 | 1 | 0.437 | 0.858 | 0.446 | 0.908 | 0.617 | 1 | 0.744 | 0.628 | 0.909 | 0.466 | 0.632 |
| CN(CCO)CC[C@H](CSc1ccccc1)Nc1ccc(S(=O)(=O)NC(=O)c2ccc(N3CCC([C@@H](O)c4ccccc4-c4ccc(Cl)cc4)CC3)cc2)cc1S(=O)(=O)C(F)(F)F [AZD4320] + CCN(CCO)CCCOc1ccc2c(Nc3cc(CC(=O)Nc4cccc(F)c4)[nH]n3)ncnc2c1 [AZD2811] (first compound max 1 µM, 7x7, partner max 1 µM) | -0.0406 | -0.0309 | 0.106 | -0.0227 | 0.386 | 0.966 | 0.924 | 0.17 | 1 | 0.416 | 0.896 | 0.414 | 0.651 | 0.194 | 0.982 | 0.913 | 0.178 | 0.545 | 0.0998 | 0.93 |
| CN(CCO)CC[C@H](CSc1ccccc1)Nc1ccc(S(=O)(=O)NC(=O)c2ccc(N3CCC([C@@H](O)c4ccccc4-c4ccc(Cl)cc4)CC3)cc2)cc1S(=O)(=O)C(F)(F)F [AZD4320] + CN(C)CCCOc1ccc(-c2ccc3ncc4c(c3c2)n(C2CCOCC2)c(=O)n4C)cn1 [AZD0156] (first compound max 1 µM, 7x7, partner max 1 µM) | -0.0224 | -0.0654 | 0.0007 | -0.0454 | 0.559 | 0.936 | 0.785 | 0.108 | 0.983 | 0.163 | 0.86 | 0.311 | 0.212 | 0.122 | 0.875 | 0.188 | 0.346 | 0.385 | 0.0906 | 0.567 |
| CN(CCO)CC[C@H](CSc1ccccc1)Nc1ccc(S(=O)(=O)NC(=O)c2ccc(N3CCC([C@@H](O)c4ccccc4-c4ccc(Cl)cc4)CC3)cc2)cc1S(=O)(=O)C(F)(F)F [AZD4320] + C[C@@H]1COCCN1C2=NC(=NC(=C2)C3(CC3)[S@](=N)(=O)C)C4=C5C=CNC5=NC=C4 [AZD6738] (first compound max 1 µM, 7x7, partner max 10 µM) | -0.0435 | 0.0034 | -0.0319 | 0.0047 | 0.834 | 0.94 | 0.926 | 0.421 | 1 | 0.668 | 0.927 | 0.333 | 0.796 | 0.85 | 0.989 | 0.863 | 0.66 | 0.858 | 0.691 | 0.806 |
| CN(CCO)CC[C@H](CSc1ccccc1)Nc1ccc(S(=O)(=O)NC(=O)c2ccc(N3CCC([C@@H](O)c4ccccc4-c4ccc(Cl)cc4)CC3)cc2)cc1S(=O)(=O)C(F)(F)F [AZD4320] + Cc1cc2ncnn2cc1Nc1ncc2c(n1)n(C1CCOCC1)c(=O)n2C [AZD7648] (first compound max 1 µM, 7x7, partner max 10 µM) | -0.0122 | -0.0508 | -0.0133 | -0.0395 | 0.699 | 0.936 | 0.895 | 0.134 | 0.966 | 0.15 | 0.882 | 0.387 | 0.14 | 0.21 | 0.898 | 0.293 | 0.305 | 0.416 | 0.173 | 0.712 |
| CN(CCO)CC[C@H](CSc1ccccc1)Nc1ccc(S(=O)(=O)NC(=O)c2ccc(N3CCC([C@@H](O)c4ccccc4-c4ccc(Cl)cc4)CC3)cc2)cc1S(=O)(=O)C(F)(F)F [AZD4320] + Cn1cnc2c(F)c(Nc3ccc(Br)cc3Cl)c(C(=O)NOCCO)cc21 [Selumetinib] (first compound max 1 µM, 7x7, partner max 3 µM) | 0.0336 | 0.0665 | 0.0265 | 0.0178 | 0.71 | 1 | 0.847 | 0.391 | 1 | 0.313 | 0.885 | 0.793 | 0.498 | 0.754 | 0.992 | 0.552 | 0.258 | 0.872 | 0.308 | 0.467 |
| COc1nnc2ccc(N3CCC(c4ccc(OCCN5CCN(C)C(=O)[C@H]5C)cc4)CC3)nn12 [AZD5153] + C=CCn1c(=O)c2cnc(Nc3ccc(N4CCN(C)CC4)cc3)nc2n1-c1cccc(C(C)(C)O)n1 [AZD1775] (first compound max 1 µM, partner max 1 µM) | -0.0366 | -0.0397 | -0.0899 | -0.0069 | 0.674 | 0.674 | 0.732 | 0.491 | 1 | 0.508 | 0.678 | 0.782 | 0.863 | 0.841 | 0.828 | 0.661 | 0.506 | 0.821 | 0.892 | 0.9 |
| COc1nnc2ccc(N3CCC(c4ccc(OCCN5CCN(C)C(=O)[C@H]5C)cc4)CC3)nn12 [AZD5153] + CC1(C)CCC(CN2CCN(c3ccc(C(=O)NS(=O)(=O)c4ccc(NCC5CCOCC5)c([N+](=O)[O-])c4)c(Oc4cnc5[nH]ccc5c4)c3)CC2)=C(c2ccc(Cl)cc2)C1 [Venetoclax] (first compound max 1 µM, 7x7, partner max 1 µM) | -0.0374 | -0.0874 | -0.0617 | -0.0704 | 0.524 | 0.329 | 0.612 | 0.266 | 0.761 | 0.487 | 0.636 | 0.702 | 0.661 | 0.757 | 0.764 | 0.239 | 0.383 | 0.745 | 0.27 | 0.769 |
